In one experiment the test system is TMPRSS2. The experiment is described as follows: TMPRSS2 protein expression in cell lines by Western blotting. It is filed as cell-based, human; mouse. The conditions noted are these: a-tubulin internal control, A549, H1299, CL1-5, Beas-2B, TC-1, MLE-12 cell lines, 18 to 24 hrs treatment. On the procedure:
The effects of Compound A and Compound B on TMPRSS2 were investigated in A549 (human alveolar epithelial cell), H1299 (human non-small cell lung carcinoma cell), CL1-5 (human lung adenocarcinoma cell), Beas-2B (human normal bronchial epithelial cell), TC-1 (mouse lung epithelial cell) and MLE-12 (mouse lung epithelial cell) cell lines. The expression of TMPRSS2 in cells was analyzed by Western blotting, and a-tubulin was used as an internal control.
In general terms: Immunoblotting shows a protein as a band on a membrane.

Experiment [1] concerns SARS-CoV-2 S pseudovirions. The experiment is described as follows: microbe, parasite or virus in culture. It is filed as cell-based. The conditions noted are these: Severe acute respiratory syndrome coronavirus 2.
The mark [2] stands for this setting: read-out: EC50, inhibition of cellular entry of SARS-CoV-2 S pseudovirions.

“Also recorded” adds a separate entry of the source. Like-named read-outs stand apart in the source and are kept apart here.

As for `COc1ccc(/C=C/C(=O)C(F)(CC2CCC2)C(=O)/C=C/c2ccc(OC)c(OC)c2)cc1OC` [Compound A, 4-fluoro-4-cyclobutylmethyl-1,7-bis(3,4-dimethoxyphenyl)hepta-1,6-diene-3,5-dione], the “protein expression of TMPRSS2” value in the experiment with TMPRSS2 is “inhibit the protein expression of TMPRSS2”. Moreover, the EC50 (in general, the concentration needed to bring the measured effect to its halfway point) in experiment [1] (setting [2]) is approximately 5.3 µM.
For `COc1ccc(/C=C/C(=O)C(CC2CCC2)C(=O)/C=C/c2ccc(OC)c(OC)c2)cc1OC` [Compound B, 4-(cyclobutylmethyl)-1,7-bis(3,4-dimethoxyphenyl)hepta-1,6-diene-3,5-dione], in the experiment with TMPRSS2, the “protein expression of TMPRSS2” value is given as “inhibit the protein expression of TMPRSS2; also recorded: greater TMPRSS2 inhibitory activity as compared to Compound A”. Besides, the EC50 was approximately 4.6 µM in experiment [1] (setting [2]) and approximately 3.5 µM in experiment [1] (read-out: EC50, prophylactic inhibition of cellular entry of pseudovirions, wild-type Spike).

For the origin of these results see patent publication US20220233468A1 (priority 2021, published 2022).
